Experimental data from patent publication US8101621B2, “Aminopyridine derivatives having aurora a selective inhibitory action” (MSD K.K., priority 2006, dated 2012).
“And” between values parts separate entries of the source, which are not always exact repeats. Equal entries are not always repeated. Structures can show the parent of a compound that is named as a salt.

Key:
Aurora B = target: T1, Aurora B (Homo sapiens, UniProt Q96GD4); assay: Aurora B inhibitory action (Kemptide substrate, [γ-33P]ATP, 100 μM ATP); type: biochemical; details: 30° C., 20 minutes
T1 construct: histidine tag (N); made in house; host or cells: Escherichia coli BL21-CodonPlus (DE3)-RIL
Excerpt: (§1) cDNA of Aurora B having histidine tag fused at the amino terminal was integrated into an expression vector, which was then highly expressed in Escherichia coli BL21-CodonPlus (DE3)-RIL cells. The Escherichia coli cells were recovered and solubilized, and then the histidine-tagged Aurora A protein was adsorbed onto a nickel chelate column and eluted from the column with imidazole. The active fraction was desalted with a desalting column to give a pure enzyme.
For measurement of the activity of Aurora B, the substrate used was Kemptide (Leu-Arg-Arg-Ala-Ser-Leu-Gly) (SEQ.ID.NO.: 1), a synthetic peptide purchased from Sigma-Aldrich, Inc. [Certificate of analysis (Upstate, Inc.)].
Reaction was conducted by a partial modification of the method of activity measurement for Aurora A. The amount of the reaction liquid was 21.1 μL, and the composition of the reaction buffer (R2 buffer) was 50 mM Tris-hydrochloride buffer (pH 7.4)/15 mM magnesium acetate/0.2 mM ethylenediamine-N,N,N′,N′-tetraacetate (EDTA). To this, purified Aurora B, 100 μM of a substrate peptide, 100 μM of unlabeled adenosine triphosphate (ATP) and 1 μCi of [γ-^33P] labeled ATP (2,500 Ci/mmole or more) were added, and the mixture was reacted at 30° C. for 20 minutes. Then, 10 μL of 350 mM phosphate buffer was added to the reaction system to stop the reaction. The substrate peptide was adsorbed on a P81 paper filter 96-well plate and then washed with 130 mM phosphate buffer for several times. The radiation activity of the peptide was measured with a liquid scintillation counter. The [γ-^33P] labeled ATP was purchased from Amersham Biosciences Co., Ltd.
(§2) The compound to be tested was added to the reaction system such that a dilution series of the compound in dimethylsulfoxide was first prepared, and 1.1 μL of this solution was added. A control was provided by adding 1.1 μL of DMSO to the reaction system.

Aurora A = target: T2, Aurora A (Homo sapiens, UniProt O14965); assay: Aurora A inhibitory action (Kemptide substrate, [γ-33P]ATP, 20 μM ATP); type: biochemical; details: 30° C., 20 minutes
T2 construct: histidine tag (N); made in house; host or cells: Escherichia coli BL21-CodonPlus (DE3)-RIL
T2 sequence (O14965 1-403): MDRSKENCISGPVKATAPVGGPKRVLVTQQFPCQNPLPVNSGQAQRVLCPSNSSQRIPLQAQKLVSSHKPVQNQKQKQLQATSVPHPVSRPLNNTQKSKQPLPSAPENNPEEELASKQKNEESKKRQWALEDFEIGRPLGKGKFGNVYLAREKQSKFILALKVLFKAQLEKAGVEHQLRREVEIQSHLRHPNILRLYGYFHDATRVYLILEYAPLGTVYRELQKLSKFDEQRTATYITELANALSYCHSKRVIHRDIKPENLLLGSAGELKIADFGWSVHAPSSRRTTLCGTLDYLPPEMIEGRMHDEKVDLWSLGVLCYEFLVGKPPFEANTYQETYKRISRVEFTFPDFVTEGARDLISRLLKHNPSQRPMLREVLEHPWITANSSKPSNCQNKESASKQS
Excerpt: as §1, with “Aurora A” for “Aurora B”
For measurement of the activity of Aurora A, the substrate used was Kemptide (Leu-Arg-Arg-Ala-Ser-Leu-Gly) (SEQ.ID.NO.: 1), a synthetic peptide purchased from Sigma-Aldrich, Inc. [Certificate of analysis (Upstate, Inc.)].
Reaction was conducted by a partial modification of a method by Upstate, Inc. [Kinase Profiler™ Assay Protocols]. The amount of the reaction liquid was 21.1 μL, and the composition of the reaction buffer (R2 buffer) was 50 mM Tris-hydrochloride buffer (pH 7.4)/15 mM magnesium acetate/0.2 mM ethylenediamine-N,N,N′,N′-tetraacetate (EDTA). To this, purified Aurora A, 100 μM of a substrate peptide, 20 μM of unlabeled adenosine triphosphate (ATP) and 0.5 μCi of [γ-^33P] labeled ATP (2,500 Ci/mmole or more) were added, and the mixture was reacted at 30° C. for 20 minutes. Then, 10 μL of 350 mM phosphate buffer was added to the reaction system to stop the reaction. The substrate peptide was adsorbed on a P81 paper filter 96-well plate and then washed with 130 mM phosphate buffer for several times. The radiation activity of the peptide was measured with a liquid scintillation counter. The [γ-^33P] labeled ATP was purchased from Amersham Biosciences Co., Ltd.
as §2

[1] = test system: Human cervical cancer cells (HeLa S3); assay: Cell growth inhibitory effect, WST-8 method; type: cell-based; details: 72 h, HeLa S3, three days incubation
Method: Fetal calf serum (FCS) was purchased from Moregate Biotech, and DMEM medium was purchased from Invitrogen Corp. WST-8 was purchased from Kishida Chemical Co., Ltd.
(§3) Human cervical cancer cells (HeLa S3) were obtained from the American Type Culture Collection (ATCC).
Cells were suspended in a DMEM medium containing 10% FCS, and the cell suspension was dispensed to a 96-well plastic plate at a rate of 750 cells/100 microliters per well. The plate was incubated overnight in 5% CO2-95% air at 37° C. A drug was subjected to graded dilution in dimethylsulfoxide and further diluted with a DMEM medium containing 10% FCS. Then, the dilution was dispensed to the plate on which cells had been disseminated, at a rate of 100 microliters per well. The plate was incubated for further three days in 5% CO2-95% air at 37° C. Cell growth after incubation was measured by the WST-8 method (H. Tominaga, et al., Anal. Commun., 36, 47-50 (1999)). Here, the WST-8 method refers to a method in which 20 microliters of a WST-8 reagent solution is added to each well, incubation is conducted at 37° C. for 45 minutes, the plate is stirred, and the amount of formazan produced is measured by a calorimetric method to determine the inhibitory rate of the drug. The concentration for 50% growth inhibition (EC50, μM) of the compound was determined.

[2] = test system: Human cervical cancer cells (HeLa S3); assay: Effect by combined use with paclitaxel in cells, WST-8 method; type: cell-based; details: three days, DMSO = 0%; for inhibition at 1 µM: HeLa S3, compound 1.0 μM alone
Method: Fetal calf serum (FCS) was purchased from Moregate Biotech, DMEM medium from Invitrogen Corp., paclitaxel (tradename: Taxol) from Sigma-Aldrich, Inc., and WST-8 from Kishida Chemical Co., Ltd.
as §3
Cells were suspended in a DMEM medium containing 10% FCS, and the cell suspension was dispensed to two 96-well plastic plates at a rate of 750 cells/100 microliters per well. The plates were incubated overnight in 5% CO2-95% air at 37° C. A drug was subjected to graded dilution in dimethylsulfoxide and further diluted with […] a DMEM medium containing 10% FCS and also containing 2 nM paclitaxel. Then, the dilutions were each dispensed to one of the plates on which cells had been disseminated, at a rate of 100 microliters per well. The final concentration of paclitaxel at this stage was 1 nM. Also, the concentrations in the case of sole administration of the compound according to the invention were 0.03, 0.1, 0.3, 1 and 3 μM. The plates were incubated for further three days in 5% CO2-95% air at 37° C. Cell growth after incubation was measured by the WST-8 method (H. Tominaga, et al., Anal. Commun., 36, 47-50 (1999)). Here, the WST-8 method refers to a method in which 20 microliters of a WST-8 reagent solution is added to each well, incubation is conducted at 37° C. for 45 minutes, the plate is stirred, and the amount of formazan produced is measured by a colorimetric method to determine the inhibitory rate of the drug. The growth inhibitory effects of paclitaxel and of the compound according to the invention were determined, with the value obtained in sole treatment of DMSO being defined as 0%.

[3] = HeLa S3, compound 1.0 μM + paclitaxel 1 nM
[4] = Homo sapiens, HeLa S3, 72 h, read-out: Cell growth inhibitory effect by sole administration of the compound of Example (%)

T1 sequence (Q96GD4 whole entry): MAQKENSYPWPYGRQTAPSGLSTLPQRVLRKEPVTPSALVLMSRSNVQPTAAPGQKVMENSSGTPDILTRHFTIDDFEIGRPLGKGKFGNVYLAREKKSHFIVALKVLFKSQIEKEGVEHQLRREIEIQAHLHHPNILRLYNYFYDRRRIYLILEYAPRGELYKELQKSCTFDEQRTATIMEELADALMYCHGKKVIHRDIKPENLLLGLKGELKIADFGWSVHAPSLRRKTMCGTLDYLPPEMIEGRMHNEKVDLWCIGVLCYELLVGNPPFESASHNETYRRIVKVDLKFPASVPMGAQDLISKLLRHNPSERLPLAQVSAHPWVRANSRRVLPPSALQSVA

Row | Structure (SMILES) | IC50 (Aurora B) [µM] | IC50 (Aurora A) [µM] | IC50 [1] [µM] | Cell growth inhibitory effect by combined administration of paclitaxel and the compound of Example (%) [2, 3] [%] | inhibition at 1 µM [2, 4] [%] | Cell growth inhibitory effect by combined administration of paclitaxel and the compound of Example (%) ([2]; HeLa S3, compound 0.1 μM + paclitaxel 1 nM) | inhibition at 0.1 µM ([2]; Homo sapiens, HeLa S3, 72 h, HeLa S3, compound 0.1 μM alone, read-out: Cell growth inhibitory effect by sole administration of the compound of Example (%)) [%] | Cell growth inhibitory effect by sole administration of paclitaxel (1 nM) (%) ([2]; HeLa S3, paclitaxel 1 nM alone) | inhibition at 0.001 µM ([2]; Homo sapiens, HeLa S3, 72 h, HeLa S3, paclitaxel 1 nM alone, read-out: Cell growth inhibitory effect by sole administration of paclitaxel (1 nM) (%)) [%]
1 | Cc1cc(Nc2cc[nH]n2)nc(CN2C[C@@H]3C[C@H]2CN3C(=O)c2cccc(Cl)c2F)n1 [Example 1, 2-(((1S,4S)-5-(3-chloro-2-fluorobenzoyl)-2,5-diazabicyclo[2.2.1]hept-2-yl)methyl)-6-methyl-N-1H-pyrazol-3-ylpyrimidine-4-amine] | 0.64 | 0.003 | 5.08 | 83.0 | 14.3 | – | – | – | –
2 | O=C(c1cccc(C(F)(F)F)c1F)N1C[C@@H]2C[C@H]1CN2Cc1nccc(Nc2cc[nH]n2)n1 [Example 6, 2-(((1S,4S)-5-(2-fluoro-3-(trifluoromethyl)benzoyl)-2,5-diazabicyclo[2.2.1]hept-2-yl)methyl)-N-1H-pyrazol-3-ylpyrimidine-4-amine] | 2.8 | 0.0061 | 9.75 | 71.7 | 1.7 | – | – | – | –
3 | Cc1cc(Nc2cc(C)[nH]n2)nc(CN2C[C@@H]3C[C@H]2CN3C(=O)c2cccc(Cl)c2F)n1 [Example 7] | 0.3 | 0.0057 | – | – | – | – | – | – | –
4 | Cc1cc(Nc2ccnc(CN3C[C@@H]4C[C@H]3CN4C(=O)c3cccc(Cl)c3F)n2)n[nH]1 [Example 9, 2-(((1S,4S)-5-(3-chloro-2-fluorobenzoyl)-2,5-diazabicyclo[2.2.1]hept-2-yl)methyl)-N-(5-methyl-1H-pyrazol-3-yl)pyrimidine-4-amine] | 0.69 | 0.0098 | – | 79.5 | 12.4 | – | – | – | –
5 | O=C(c1cccc(C(F)(F)F)c1Cl)N1C[C@H]2C[C@@H]1CN2Cc1cncc(Nc2cc[nH]n2)n1 [Example 12] | 2.3 | 0.0048 | – | – | – | – | – | – | –
6 | CC(=O)O[C@H]1C(=O)[C@@]2(C)[C@H]([C@H](OC(=O)c3ccccc3)[C@]3(O)C[C@H](OC(=O)[C@H](O)[C@@H](NC(=O)c4ccccc4)c4ccccc4)C(C)=C1C3(C)C)[C@]1(OC(C)=O)CO[C@@H]1C[C@@H]2O [paclitaxel, reference compound] | – | – | – | – | – | – | – | 47.1% and 51.4% | 47.2

Further lines, with some results ahead:

Row | IC50 (Aurora B) [µM] | IC50 (Aurora A) [µM] | IC50 [1] [µM] | Structure (SMILES) | Cell growth inhibitory effect by combined administration of paclitaxel and the compound of Example (%) [2, 3] [%] | inhibition at 1 µM [2, 4] [%] | Cell growth inhibitory effect by combined administration of paclitaxel and the compound of Example (%) ([2]; HeLa S3, compound 0.1 μM + paclitaxel 1 nM) | inhibition at 0.1 µM ([2]; Homo sapiens, HeLa S3, 72 h, HeLa S3, compound 0.1 μM alone, read-out: Cell growth inhibitory effect by sole administration of the compound of Example (%)) [%] | Cell growth inhibitory effect by sole administration of paclitaxel (1 nM) (%) ([2]; HeLa S3, paclitaxel 1 nM alone) | inhibition at 0.001 µM ([2]; Homo sapiens, HeLa S3, 72 h, HeLa S3, paclitaxel 1 nM alone, read-out: Cell growth inhibitory effect by sole administration of paclitaxel (1 nM) (%)) [%]
7 | 2.1 | 0.0071 | 4.6 | O=C(c1cccc(Cl)c1Cl)N1C[C@@H]2C[C@H]1CN2Cc1cncc(Nc2cc[nH]n2)n1 [Example 10, 6-(((1S,4S)-5-(2,3-dichlorobenzoyl)-2,5-diazabicyclo[2.2.1]hept-2-yl)methyl)-N-1H-pyrazol-3-ylpyrazine-2-amine trifluoroacetate] | 84.8 | 8.9 | – | – | – | –
8 | 0.26 | 0.0013 | 0.67 | CN(C)C(=O)c1cc(CN2C[C@@H]3C[C@H]2CN3C(=O)c2cccc(Cl)c2F)nc(Nc2nccs2)c1 [Example 21, 2-(((1S,4S)-5-(3-chloro-2-fluorobenzoyl)-2,5-diazabicyclo[2.2.1]hept-2-yl)methyl)-N,N-dimethyl-6-(1,3-thiazol-2-ylamino)isonicotinamide] | – | – | 81.3 | 14.9 | – | –
9 | 0.59 | 0.0014 | – | CN(C)C(=O)c1cc(CN2C[C@@H]3C[C@H]2CN3C(=O)c2cccc(C(F)(F)F)c2F)nc(Nc2nccs2)c1 [Example 22, 2-(((1S,4S)-5-(2-fluoro-3-(trifluoromethyl)benzoyl)-2,5-diazabicyclo[2.2.1]hept-2-yl)methyl)-N,N-dimethyl-6-(1,3-thiazol-2-ylamino)isonicotinamide trifluoroacetate] | – | – | – | – | – | –
10 | 0.33 | 0.0014 | – | CN(C)C(=O)c1cc(CN2C[C@@H]3C[C@H]2CN3C(=O)c2cccc(Cl)c2C#N)nc(Nc2nccs2)c1 [Example 23, 2-(((1S,4S)-5-(3-chloro-2-cyanobenzoyl)-2,5-diazabicyclo[2.2.1]hept-2-yl)methyl)-N,N-dimethyl-6-(1,3-thiazol-2-ylamino)isonicotinamide trifluoroacetate] | – | – | – | – | – | –
11 | 0.19 | 0.0011 | – | CN(C)C(=O)c1cc(CN2C[C@@H]3C[C@H]2CN3C(=O)c2cccc(C(F)(F)F)c2C#N)nc(Nc2nccs2)c1 [Example 24, 2-(((1S,4S)-5-(2-cyano-3-(trifluoromethyl)benzoyl)-2,5-diazabicyclo[2.2.1]hept-2-yl)methyl)-N,N-dimethyl-6-(1,3-thiazol-2-ylamino)isonicotinamide] | – | – | – | – | – | –
